Measurements taken from publication PMC9797722 (Frontiers in Veterinary Science, 2022).
Like-named read-outs stand apart in the source and are kept apart here. Values belong to the compound of their own block, whether it stands above or below them.

How the values were obtained:
gastric pH = details: horses, cited from earlier work
[1] = in vivo
[2] = humans, cited from earlier work
[3] = Plasma pharmacokinetics of esomeprazole and esomeprazole sulfone in goats after IV and SC administration (HPLC, non-compartmental analysis); details: for C0: C0, goats; for MRT inf: MRTinf; for k el: λz; for Vd/F: Vz/F
[4] = Canine, cited from earlier work
[5] = set-up: method as in PMID 34631865; details: goats, intravenously or subcutaneously administered, all animals; cited from earlier work
[6] = system: pH of the third compartment; set-up: method as in PMID 20384953; details: alpacas, administered IV or SC; cited from earlier work
[7] = both, pygmy and pygmy-cross, plasma, iv, 1 mg/kg
[8] = both, pygmy and pygmy-cross, plasma, iv, 1 mg/kg, goats, 1 mg/kg IV single dose, geomean, n = 5
[9] = both, pygmy and pygmy-cross, plasma, iv, 1 mg/kg, goats, 1 mg/kg IV single dose, median, n = 5
[10] = both, pygmy and pygmy-cross, plasma, sc, 2 mg/kg
[11] = both, pygmy and pygmy-cross, plasma, sc, 2 mg/kg, goats, 2 mg/kg SC (SQ) single dose, geomean, n = 5
[12] = both, pygmy and pygmy-cross, plasma, sc, 2 mg/kg, goats, 2 mg/kg SC (SQ) single dose, median, n = 5
[13] = goats, 1 mg/kg IV single dose, plasma, geomean, n = 5
[14] = goats, 1 mg/kg IV single dose, plasma, median, n = 5
[15] = goats, 2 mg/kg SC (SQ) single dose, plasma, geomean, n = 5
[16] = goats, 2 mg/kg SC (SQ) single dose, plasma, median, n = 5

Structure (SMILES): COc1ccc2[n-]c([S+]([O-])Cc3ncc(C)c(OC)c3C)nc2c1.COc1ccc2[n-]c([S+]([O-])Cc3ncc(C)c(OC)c3C)nc2c1.[Mg+2] (stereo not shown) [esomeprazole magnesium]
gastric pH maintained (gastric pH; orally 60 or 80 mg, for up to 6 h post administration): ≥ 5 | adverse reactions (gastric pH; orally 60 or 80 mg): No adverse reactions were found

time detectable in plasma [1]: < 4 h | detection of sulfone metabolite in plasma ([1]; sc): no detectable sulfone metabolite
Structure (SMILES): COc1ccc2[nH]c(S(=O)(=O)Cc3ncc(C)c(OC)c3C)nc2c1 [Esomeprazole Sulfone, esomeprazole sulfone]
activity of the metabolite within the body [2]: not active

F (bioavailability) ([3]; Goat, 2 mg/kg SC vs 1 mg/kg IV, AUCSC/AUCIV x DoseIV/DoseSC): 116% | AUC(0-inf) [3, 7]: 440 ng·h/mL | AUC(0-t) [3, 7]: 440 ng·h/mL | C0 ([3]; both, pygmy and pygmy-cross, plasma, iv, 1 mg/kg, 1 mg/kg IV single dose, geomean, n = 5): 2320 ng/mL | C0 ([3]; both, pygmy and pygmy-cross, plasma, iv, 1 mg/kg, 1 mg/kg IV single dose, median, n = 5): 2880 ng/mL | Cmax ([3]; both, pygmy and pygmy-cross, plasma, iv, 1 mg/kg, C0/Cmax, Goat, 1 mg/kg IV (Table 3 comparison)): 2320 ng/mL | clearance ([3]; both, pygmy and pygmy-cross, plasma, iv, 1 mg/kg, Cl (plasma clearance), goats, 1 mg/kg IV single dose, geomean, n = 5): 24.9 mL/min/kg | clearance ([3]; both, pygmy and pygmy-cross, plasma, iv, 1 mg/kg, Cl (plasma clearance), goats, 1 mg/kg IV single dose, median, n = 5): 21.9 mL/min/kg | clearance ([3]; both, pygmy and pygmy-cross, plasma, iv, 1 mg/kg, Cl, Goat, 1 mg/kg IV (Table 3 comparison)): 25 mL/min/kg | MRT inf [3, 8]: 9.19 min | MRT inf [3, 9]: 8.41 min | Vd ([3]; both, pygmy and pygmy-cross, plasma, iv, 1 mg/kg, Vss, Goat, 1 mg/kg IV (Table 3 comparison)): 0.23 L/kg | Vd ([3]; both, pygmy and pygmy-cross, plasma, iv, 1 mg/kg, Vz (volume of distribution), goats, 1 mg/kg IV single dose, geomean, n = 5): 0.23 L/kg | Vd ([3]; both, pygmy and pygmy-cross, plasma, iv, 1 mg/kg, Vz (volume of distribution), goats, 1 mg/kg IV single dose, median, n = 5): 0.19 L/kg | k el [3, 8]: 0.00183 s⁻¹ | k el [3, 9]: 0.00183 s⁻¹ | AUC(0-inf) [3, 10]: 1030 ng·h/mL | AUC(0-t) [3, 10]: 1020 ng·h/mL | Cmax ([3]; both, pygmy and pygmy-cross, plasma, sc, 2 mg/kg, C0/Cmax, Goat, 2 mg/kg SQ (Table 3 comparison)): 1040 ng/mL | Cmax ([3]; both, pygmy and pygmy-cross, plasma, sc, 2 mg/kg, Cmax, goats, 2 mg/kg SC (SQ) single dose, geomean, n = 5): 1040 ng/mL | Cmax ([3]; both, pygmy and pygmy-cross, plasma, sc, 2 mg/kg, Cmax, goats, 2 mg/kg SC (SQ) single dose, median, n = 5): 1060 ng/mL | bioavailability ([3]; both, pygmy and pygmy-cross, plasma, sc, 2 mg/kg, F (bioavailability), Goat, 2 mg/kg SC vs 1 mg/kg IV, AUCSC/AUCIV x DoseIV/DoseSC): > 100% | MRT inf [3, 11]: 51.7 min | MRT inf [3, 12]: 52.1 min | half-life ([3]; both, pygmy and pygmy-cross, plasma, sc, 2 mg/kg, T1/2 (λz) elimination half-life, goats, 2 mg/kg SC (SQ) single dose, geomean, n = 5): 29 min | half-life ([3]; both, pygmy and pygmy-cross, plasma, sc, 2 mg/kg, T1/2 (λz) elimination half-life, goats, 2 mg/kg SC (SQ) single dose, median, n = 5): 26.8 min | half-life ([3]; both, pygmy and pygmy-cross, plasma, sc, 2 mg/kg, T1/2 (λz), Goat, 2 mg/kg SQ): 29.4 min | Tmax ([3]; both, pygmy and pygmy-cross, plasma, sc, 2 mg/kg, Tmax, goats, 2 mg/kg SC (SQ) single dose, geomean, n = 5): 22 min | Tmax ([3]; both, pygmy and pygmy-cross, plasma, sc, 2 mg/kg, Tmax, goats, 2 mg/kg SC (SQ) single dose, median, n = 5): 20 min | Vd/F [3, 11]: 0.9 L/kg | Vd/F [3, 12]: 0.78 L/kg | k el [3, 11]: 0.0004 s⁻¹ | k el [3, 12]: 0.000433 s⁻¹ | AUCinf [3, 13]: 442 ng·h/mL | AUClast [3, 13]: 439 ng·h/mL | AUMCinf [3, 13]: 244 min²·µg/mL | AUCinf [3, 14]: 397 ng·h/mL | AUClast [3, 14]: 394 ng·h/mL | AUMCinf [3, 14]: 222 min²·µg/mL | AUCinf [3, 15]: 1030 ng·h/mL | AUClast [3, 15]: 1020 ng·h/mL | AUMCinf [3, 15]: 3200 min²·µg/mL | Tmax ([3]; goats, 2 mg/kg SC (SQ) single dose, plasma, geomean, n = 5, 2 mg/kg): 21.69 min | AUCinf [3, 16]: 979 ng·h/mL | AUClast [3, 16]: 959 ng·h/mL | AUMCinf [3, 16]: 3780 min²·µg/mL | plasma concentrations detected over time ([3]; goats, IV (1 mg/kg) and SC (2 mg/kg), any animal): not detected after 4 h
Structure (SMILES): COc1ccc2nc([S@@+]([O-])Cc3ncc(C)c(OC)c3C)[nH]c2c1 [Esomeprazole, esomeprazole]
clearance ([3]; both, pygmy and pygmy-cross, plasma, iv, 1 mg/kg, clearance, goats, 1 mg/kg IV, not normalised to body weight): 1050 mL/min | AUCinf ([4]; 1 mg/kg IV): 3.82 µg·h/mL | AUClast ([4]; 1 mg/kg IV): 3.82 µg·h/mL | Cl ([4]; 1 mg/kg IV): 0.3 L/h/kg | T1/2 (λz) ([4]; 1 mg/kg IV): 43.8 min | Vss ([4]; 1 mg/kg IV): 0.27 L/kg | AUCinf ([4]; 1 mg/kg SQ): 4.07 µg·h/mL | AUClast ([4]; 1 mg/kg SQ): 4.07 µg·h/mL | C0/Cmax ([4]; 1 mg/kg SQ): 2.62 µg/mL | F (bioavailability) ([4]; 1 mg/kg SQ): 106% | T1/2 (λz) ([4]; 1 mg/kg SQ): 54 min | tolerability of maintenance therapy ([2]; daily for up to 6 months): generally well-tolerated | gastric pH raised to (gastric pH; administered intravenously): ≥ 4

Structure (SMILES): COc1ccnc(C[S+]([O-])c2nc3ccc(OC(F)F)cc3[nH]2)c1OC (stereo not shown) [pantoprazole]
plasma concentration detected over time [5]: undetectable after 4 h | effect on pH of the third compartment [6]: significantly increased the pH of the third compartment
